Test: xn = mol fraction of the nth substance listed
Conditions: 100 kPa, x1 = 1

CCCC[n+]1ccn(C)c1.F[P-](F)(F)(F)(F)F + CCCC[n+]1ccn(C)c1.O=S(=O)([O-])C(F)(F)F
Conditions	viscosity [mPa·s]
293.15 K	337
298.15 K	257
303.15 K	197.6
308.15 K	148.3
313.15 K	112
323.15 K	71
328.15 K	59.7
